Patent US20040224958A1, “Pyridopyrimidinone derivatives for treatment of neurodegenerative disease” (priority 2000, published 2004)
Read-outs that look alike come from different tables or passages of the source.

Tests used:
cdk4/D = cdk4/D (Homo sapiens, UniProt P11802); assay: Cyclin-Dependent Kinase 4 (cdk4) Assay; format: biochemical
Description: A typical assay, for instance, measures inhibitory activity against the cyclin D dependent kinase 4 enzyme (cdk4/D). […] The cdk4 assay was carried out as follows.
Cyclin-Dependent Kinase 4 (cdk4) Assay
All components except the ATP were added to the wells, and the plate was placed on a plate mixer for 2 minutes. The reaction was started by adding [^32P]ATP and the plate was incubated at 25° C. for 15 minutes. The reaction was terminated by addition of 0.1 mL of 20% trichloroacetic acid (TCA). The plate was kept at 4° C. for at least 1 hour to allow the substrate to precipitate. The wells were then washed five times with 0.2 mL of 10% TCA and ^32P incorporation was determined with a beta plate counter (Wallac Inc., Gaithersburg, Md.).

cdk2/cyclinE = cdk2/cyclinE (Homo sapiens, UniProt P24941); assay: Cyclin-Dependent Kinase Assay cdk2/cyclinE; conditions: cdk2/E IC50
cdc2/cyclinB = cdc2/cyclinB (Homo sapiens, UniProt P06493); assay: Cyclin-Dependent Kinase Assay cdc2/cyclinB
Cdk5/p25 = Cdk5/p25 (Homo sapiens, UniProt Q00535); assay: Cyclin-Dependent Kinase 5 High Throughput Screening (cdk5-HTS) Assay; format: biochemical; conditions: high throughput screen
Description: Cyclin-Dependent Kinase 5 High Throughput Screening (cdk5-HTS) Assay
Enzyme assays for IC50 determinations were performed in 96-Pierce Reacti-Bind™ White Opaque Glutatione Coated Plates (Cat. No. 15240B).
The total volume was 0.100 mL containing a final concentration of 50 mM TRIS (tris[hydroxymethyl]aminomethane) at pH 7.4, 50 mM NaCl, 10 mM MgCl2, 5 mM dithiothreitol, 20 μM ATP containing 16 μCi/mL of Redivue[y33P]ATP (Amersham Pharmacia Biotech Cat. No. AH9968), 1.0 μg/mL Cdk5/p25, 20 μg/mL GST-RbCOOH, and appropriate dilutions of a compound of the present invention. The reaction was started by adding[^33P]ATP, and the plate was shaken for 30 seconds, then incubated at room temperature for 30 minutes. The reaction was terminated by addition of 0.05 mL of 120 mM EDTA. The plate was kept at room temperature for 45 minutes to allow substrate to bind to the walls of the plate. The wells were then washed three times with 0.2 mL of 1×PBS. Once thoroughly dry, 0.140 mL of MicroScint™2O (Packard Bioscience Cat. No. 87-9081) cocktail was added to all wells. The incorporation of ^33P was determined with a beta plate counter (Packard Topcount).

cdk2/cyclinA = cdk2/cyclinA (Homo sapiens, UniProt P24941); assay: Cyclin-Dependent Kinase Assay cdk2/cyclinA; conditions: cdk2/A IC50

cdk4/D, sequence (P11802 whole entry): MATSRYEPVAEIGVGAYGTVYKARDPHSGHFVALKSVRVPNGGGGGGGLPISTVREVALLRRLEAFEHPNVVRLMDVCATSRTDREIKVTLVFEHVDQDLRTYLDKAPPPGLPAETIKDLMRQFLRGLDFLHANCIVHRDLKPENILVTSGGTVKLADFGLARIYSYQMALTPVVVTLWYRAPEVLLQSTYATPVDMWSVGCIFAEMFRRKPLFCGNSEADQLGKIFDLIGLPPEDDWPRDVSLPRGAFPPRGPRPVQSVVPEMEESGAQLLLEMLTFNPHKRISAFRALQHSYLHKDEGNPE
cdk4/D, sequence (P24385 whole entry, further chain): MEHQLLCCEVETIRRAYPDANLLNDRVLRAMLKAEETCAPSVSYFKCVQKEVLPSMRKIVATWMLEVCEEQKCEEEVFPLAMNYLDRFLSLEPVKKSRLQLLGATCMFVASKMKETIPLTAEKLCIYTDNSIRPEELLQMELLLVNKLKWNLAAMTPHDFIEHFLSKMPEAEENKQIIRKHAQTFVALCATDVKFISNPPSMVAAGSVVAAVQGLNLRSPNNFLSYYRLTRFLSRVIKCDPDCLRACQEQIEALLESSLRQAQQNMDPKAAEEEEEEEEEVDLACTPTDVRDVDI
cdc2/cyclinB, sequence (P06493 whole entry): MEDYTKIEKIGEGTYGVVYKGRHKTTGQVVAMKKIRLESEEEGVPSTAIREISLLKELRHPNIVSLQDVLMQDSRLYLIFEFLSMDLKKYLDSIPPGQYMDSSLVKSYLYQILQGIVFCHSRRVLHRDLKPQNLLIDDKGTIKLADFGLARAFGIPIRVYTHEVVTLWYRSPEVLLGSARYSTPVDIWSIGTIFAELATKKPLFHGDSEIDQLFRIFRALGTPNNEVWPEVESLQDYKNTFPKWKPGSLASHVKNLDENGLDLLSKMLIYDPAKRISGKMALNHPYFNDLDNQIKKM
cdc2/cyclinB, sequence (P14635 whole entry, further chain): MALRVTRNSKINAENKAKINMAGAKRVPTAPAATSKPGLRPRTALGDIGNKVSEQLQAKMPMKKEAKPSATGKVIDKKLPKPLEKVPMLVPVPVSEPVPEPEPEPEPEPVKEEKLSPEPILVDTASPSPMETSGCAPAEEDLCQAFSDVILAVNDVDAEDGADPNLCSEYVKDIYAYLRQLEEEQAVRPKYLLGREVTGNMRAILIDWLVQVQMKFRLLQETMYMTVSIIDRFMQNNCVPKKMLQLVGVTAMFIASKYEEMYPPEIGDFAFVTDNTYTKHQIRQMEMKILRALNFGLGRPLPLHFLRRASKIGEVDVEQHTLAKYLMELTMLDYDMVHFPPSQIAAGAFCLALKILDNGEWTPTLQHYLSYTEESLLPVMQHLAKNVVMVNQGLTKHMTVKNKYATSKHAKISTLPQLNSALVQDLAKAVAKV

| Compound | IC50 (cdk4/D; read-out: cdk4/D IC50) | IC50 (Cdk5/p25) | also measured |
| --- | --- | --- | --- |
| 8-Butyl-2-(2-fluoro-4-nitro-phenylamino)-8H-pyrido[2,3-d]pyrimidin-7-one [Example 367] | 2300 nM |  |  |
| CCNc1nc(Nc2ccccc2)ncc1C=CC(=O)OCC [Example 17, Ethyl 3-(4-Ethylamino-2-phenylamino-pyrimidin-5-yl)acrylate] |  |  | IC50 (cdk4/D; Table 2, Formula II compounds, read-out: cdk4 IC50): 2000 nM |
| CCn1c(=O)ccc2cnc(Nc3ccccc3OCc3ccccc3)nc21 [Example 56, 2-Benzyloxyphenylamino-8-ethyl-8H-pyrido[2,3-d]pyrimidin-7-one] |  |  | IC50 (cdk4/D; Table 1, read-out: cdk4/D IC50): 25000 nM |
| CCn1c(=O)ccc2cnc(Nc3cc(OC)c(OC)c(OC)c3)nc21 [Example 292, 8-Ethyl-2-(3,4,5-trimethoxy-phenylamino)-8H-pyrido[2,3-d]pyrimidin-7-one] |  | 610 nM | IC50 (cdk2/cyclinE): 1200 nM; IC50 (cdc2/cyclinB): 860 nM |
| CCn1c(=O)ccc2cnc(Nc3cc(C(F)(F)F)ccc3F)nc21 [Example 302, 8-Ethyl-2-(2-fluoro-5-trifluoromethyl-phenylamino)-8H-pyrido[2,3-d]pyrimidin-7-one] |  | 650 nM | IC50 (cdk2/cyclinE): 2300 nM |
| CCn1c(=O)ccc2cnc(Nc3ccc(OC(F)(F)F)c(Br)c3)nc21 [Example 306, 2-(3-Bromo-4-trifluoromethoxy-phenylamino)-8-ethyl-8H-pyrido[2,3-d]pyrimidin-7-one] | 3600 nM |  |  |
| CCn1c(=O)ccc2cnc(Nc3ccc(C)c(NS(C)(=O)=O)c3)nc21 [Example 307, N-[5-(8-Ethyl-7-oxo-7,8-dihydro-pyrido[2,3-d]pyrimidin-2-ylamino)-2-methyl-phenyl]-methanesulfonamide] | 2800 nM |  |  |
| CCn1c(=O)ccc2cnc(Nc3ccc(NC(C)=O)c(C#N)c3)nc21 [Example 308, N-[2-Cyano-4-(8-ethyl-7-oxo-7,8-dihydro-pyrido[2,3-d]pyrimidin-2-ylamino)-phenyl]-acetamide] | 3200 nM |  |  |
| CCCn1c(=O)ccc2cnc(Nc3ccc(C#N)c(C#N)c3)nc21 [Example 339, 4-(7-Oxo-8-propyl-7,8-dihydro-pyrido[2,3-d]pyrimidin-2-ylamino)-phthalonitrile] |  | 830 nM | IC50 (cdk2/cyclinE): 1800 nM |
| CCCn1c(=O)ccc2cnc(Nc3ccc4c(c3)NCC4)nc21 [Example 352, 2-(2,3-Dihydro-1H-indol-6-ylamino)-8-propyl-8H-pyrido[2,3-d]pyrimidin-7-one] |  | 2900 nM |  |
| CCCn1c(=O)ccc2cnc(Nc3ccc(OC(F)(F)F)c(Br)c3)nc21 [Example 363, 2-(3-Bromo-4-trifluoromethoi-phenylamino)-8-propyl-8H-pyrido[2,3-d]pyrimidin-7-one] | 1900 nM |  |  |
| CCCCn1c(=O)ccc2cnc(Nc3ccc(C)c(NS(C)(=O)=O)c3)nc21 [Example 405, N-[5-(8-Butyl-7-oxo-7,8-dihydro-pyrido[2,3-d]pyrimidin-2-ylamino)-2-methyl-phenyl]-methanesulfonamide] | 3100 nM |  |  |
| Cc1cc(Nc2ncc3ccc(=O)n(C(C)C)c3n2)ccc1O [Example 435, 2-(4-Hydroxy-3-methyl-phenylamino)-8-isopropyl-8H-pyrido[2,3-d]pyrimidin-7-one] | 2600 nM | 1300 nM |  |
| CC(C)n1c(=O)ccc2cnc(Nc3ccc4c(c3)CCN4)nc21 [Example 437, 2-(2,3-Dihydro-1H-indol-5-ylamino)-8-isopropyl-8H-pyrido[2,3-d]pyrimidin-7-one] | 3200 nM |  |  |
| CC(=O)Nc1ccc(Nc2ncc3ccc(=O)n(C(C)C)c3n2)cc1C#N [Example 445, N-[2-Cyano-4-(8-isopropyl-7-oxo-7,8-dihydro-pyrido[2,3-d]pyrimidin-2-ylamino)-phenyl]-acetamide] | 2700 nM |  |  |
| CCC(C)n1c(=O)ccc2cnc(Nc3ccc(C)c(Br)c3)nc21 (stereo not drawn) [Example 478, 2-(3-Bromo-4-methyl-phenylamino)-8-sec-butyl-8H-pyrido[2,3-d]pyrimidin-7-one] | 1300 nM |  |  |
| CCC(C)n1c(=O)ccc2cnc(Nc3ccc(Br)c(C)c3)nc21 (stereo not drawn) [Example 479, 2-(4-Bromo-3-methyl-phenylamino)-8-sec-butyl-8H-pyrido[2,3-d]pyrimidin-7-one] | 1700 nM |  |  |

The next lines start with results.

| IC50 (cdk4/D; read-out: cdk4/D IC50) | IC50 (Cdk5/p25) | Compound | also measured |
| --- | --- | --- | --- |
| 2900 nM |  | CCC(C)n1c(=O)ccc2cnc(Nc3ccc(C)c(NS(C)(=O)=O)c3)nc21 (stereo not drawn) [Example 480, N-[5-(8-sec-Butyl-7-oxo-7,8-dihydro-pyrido[2,3-d]pyrimidin-2-ylamino)-2-methyl-phenyl]-methanesulfonamide] |  |
|  | 3500 nM | CCC(CC)n1c(=O)ccc2cnc(Nc3ccc(C(F)(F)F)c([N+](=O)[O-])c3)nc21 [Example 489, 8-(1-Ethyl-propyl)-2-(3-nitro-4-trifluoromethyl-phenylamino)-8H-pyrido[2,3-d]pyrimidin-7-one] |  |
| 99 nM |  | O=c1ccc2cnc(Nc3ccc4c(c3)CCN4)nc2n1C1CCCC1 [Example 553, 8-Cyclopentyl-2-(2,3-dihydro-1H-indol-5-ylamino)-8H-pyrido[2,3-d]pyrimidin-7-one] | IC50 (cdc2/cyclinB): 2500 nM |
| 2800 nM |  | CC(=O)Nc1c(F)cc(Nc2ncc3ccc(=O)n(CC4CC4)c3n2)cc1Cl [Example 579, N-[2-Chloro4-(8-cyclopropylmethyl-7-oxo-7,8-dihydro-pyrido[2,3-d]pyrimidin-2-ylamino)-6-fluoro-phenyl]-acetamide] | IC50 (cdk2/cyclinA): 3900 nM; IC50 (cdk2/cyclinE): 2900 nM |
| 420 nM |  | O=c1ccc2cnc(Nc3ccc4c(c3)CCN4)nc2n1CC1CC1 [Example 581, 8-Cyclopropylmethyl-2-(2,3-dihydro-1H-indol-5-ylamino)-8H-pyrido[2,3-d]pyrimidin-7-one] | IC50 (cdc2/cyclinB): 1600 nM |
| 1300 nM | 180 nM | COc1ccc(Nc2ncc3ccc(=O)n(CC(F)(F)F)c3n2)cc1F [Example 602, 2-(3-Fluoro-4-methoxy-phenylamino)-8-(2,2,2-trifluoro-ethyl)-8H-pyrido[2,3-d]pyrimidin-7-one] | IC50 (cdc2/cyclinB): 1800 nM |
|  | 1200 nM | N#Cc1ccc(Nc2ncc3ccc(=O)n(CC(F)(F)F)c3n2)cc1C#N [Example 603, 4-[7-Oxo-8-(2,2,2-trifluoro-ethyl)-7,8-dihydro-pyrido[2,3-d]pyrimidin-2-ylamino]-phthalonitrile] |  |
| 3200 nM | 2000 nM | CC(=O)Nc1cc(Nc2ncc3ccc(=O)n(CC(F)(F)F)c3n2)ccc1C#N [Example 604, N-{2-Cyano-5-[7-oxo-8-(2,2,2-trifluoro-ethyl)-7,8-dihydro-pyrido[2,3-d]pyrimidin-2-ylamino]-phenyl}-acetamide] |  |
| 3800 nM | 1800 nM | COc1cc(Nc2ncc3ccc(=O)n(CC(F)(F)F)c3n2)cc(C(F)(F)F)c1 [Example 606, 2-(3-Methoxy-5-trifluoromethyl-phenylamino)-8-(2,2,2-trifluoro-ethyl)-8H-pyrido[2,3-d]pyrimidin-7-one] | IC50 (cdc2/cyclinB): 3500 nM |
| 1400 nM | 610 nM | O=c1ccc2cnc(Nc3ccc(F)c(F)c3)nc2n1CC(F)(F)F [Example 607, 2-(3,4-Difluoro-phenylamino)-8-(2,2,2-trifluoro-ethyl)-8H-pyrido[2,3-d]pyrimidin-7-one] |  |
|  | 3200 nM | O=c1ccc2cnc(Nc3cc(F)cc(F)c3)nc2n1CC(F)(F)F [Example 609, 2-(3,5-Difluoro-phenylamino)-8-(2,2,2-trifluoro-ethyl)-8H-pyrido[2,3-d]pyrimidin-7-one] |  |
|  | 3300 nM | O=c1ccc2cnc(Nc3cccc(C(F)(F)F)c3)nc2n1CC(F)(F)F [Example 611, 8-(2,2,2-Trifluoro-ethyl)-2-(3-trifluoromethyl-phenylamino)-8H-pyrido[2,3-d]pyrimidin-7-one] |  |
|  | 2200 nM | Cn1c(=O)ccc2cnc(Nc3ccc(O)c(Cl)c3)nc21 [Example 616, 2-(3-Chloro-4-hydroxy-phenylamino)-8-methyl-8H-pyrido[2,3-d]pyrimidin-7-one] | IC50 (cdk2/cyclinE): 3800 nM |
|  | 1700 nM | COc1cc(Nc2ncc3ccc(=O)n(C)c3n2)cc(OC)c1OC [Example 619, 8-Methyl-2-(3,4,5-trimethoxy-phenylamino)-8H-pyrido[2,3-d]pyrimidin-7-one] |  |
|  | 420 nM | Cn1c(=O)ccc2cnc(Nc3ccc(C#N)c(C(F)(F)F)c3)nc21 [Example 620, 4-(8-Methyl-7-oxo-7,8-dihydro-pyrido[2,3-d]pyrimidin-2-ylamino)-2-trifluoromethyl-benzonitrile] |  |
